Patent US11154057B2, “Use of nootkatone to treat mosquito infestations” (EVOLVA SA, priority 2016, dated 2021)

Columns and labels:
Format in all cases: in vivo
Aedes aegypti eggs = assay: Prevention of mosquito egg hatching (Example No. 5); settings: 0.03% nootkatone/1% ethanol, 24 hours
Procedure: Mosquito eggs from Aedes aegypti and Anopheles quadrimaculatus mosquitoes were obtained from a commercial source.
In a second experiment, Aedes aegypti eggs were divided into cohorts of ˜100 eggs. Each cohort was placed inside a clean 9 cm Petri dish after receiving mock treatment or a true treatment with nootkatone (see “Treatments”), after which the Petri dish was covered with its lid and held at 30-35° C. to allow hatching. Hatching was scored as the number of live larvae after 24 hours. Four cohorts were tested per treatment.
An aliquot of 0.2 mL of a 3% solution (w/v) of nootkatone in 100% ethanol was added to 20 mL of sterile MilliQ water in treatment Petri dishes to obtain a final concentration of 0.03% nootkatone/1% ethanol. Control beakers received 0.2 mL of 100% ethanol, to obtain a final concentration of 1% ethanol.
The rate of egg hatching was calculated for each treatment and control egg cohort, and the results of at least 4 cohorts were averaged, and used to calculate the relative hatch rate for treatments versus controls (see FIG. 11). […] Therefore, nootkatone treatment of mosquito breeding sites will effectively reduce mosquito populations by preventing hatching and killing hatched larvae.

3rd/4th instar larvae = assay: Duration of protection from larvae, Method 1: daily addition of new larval cohorts to treated beakers (Example No. 4)
Procedure: Method 1: Clean, glass 600 mL beakers were set up as test containers (such that the surface area of water to be treated was 54 cm^2), and were treated with 1 mL of 3% nootkatone in ethanol (v/v), or 1 mL of ethanol alone, as in Example No. 1, to achieve a final concentration of 0.03% nootkatone (v/v). After 24 hours, 100% of larvae were dead in the treated beakers, but 100% were alive in the control beakers, as in Example No. 1. An additional cohort of 25 larvae was added to each treatment beaker in the smallest practical volume of additional water, estimated at 1 mL per beaker. After an additional 24 hours, total live and dead larvae were counted and recorded. Testing continued by addition of new larval cohorts (25 per beaker, per day) for additional 24 hour periods until either there were no available 3rd/4th instar larvae, or until the rate of larval killing decreased.
In two replicate experiments, larvae cohorts were added to test containers in the presence of 0.03% nootkatone, 1% ethanol, starting 24 to 72 hours after addition of nootkatone and ethanol to the test containers (see FIGS. 5 and 6). In the second experiment, additional additional larval replicates were added simultaneously to test containers in the presence of 0.01% nootkatone, 1% ethanol (see FIG. 6).
In a separate experiment with the same experimental set-up, test containers were inoculated with nootkatone in ethanol 48 hours prior to addition of larvae (see FIG. 7). In these experiments, 100% of larvae were killed within 24 hours up to a week after nootkatone treatment. One week after addition of nootkatone, larval mortality was still at 94%.

[1] = test system: Adult Aedes aegypti mosquitoes; assay: Prevention of adult mosquito egg laying on treated filter papers; fecundity and adult mortality (Example No. 8); settings: for Adult mosquito mortality: Affected, mean / Adult mosquito mortality: Dead, mean / Adult mosquito mortality: Knockdown, mean: 1% NK treated filter paper, cage of 100 mosquitoes; for Percent fecundity reduction, average: filter paper treated with 1 mL, dried, versus untreated paper in the same cage of 100 blood fed mosquitoes, triplicate
Procedure: Adult Aedes aegypti mosquitoes from a laboratory were blood fed and mated. Testing was conducted 2 days after administration of the blood meal to ensure that females were ready to oviposit.
White filter paper was cut to fit Petri dishes 9 cm in diameter, and each paper was treated with 1 mL of ethanol, 1% nootkatone, Formulation ECS-F-#605, or Formulation ECS-F_#607 (see Table No. 5). The filter papers were allowed to dry completely, and two Petri dishes were added to each cage of 100 blood fed mosquitoes, one treated, and one untreated control. A few milliliters of water was added to each Petri dish to provide a suitable egg laying site. […] Each treatment was tested in triplicate.
Female mosquitoes lay a high density of eggs (black spots) on suitable egg laying substrates, such as white filter paper. It was anticipated that either adult females would be repelled from egg laying sites that were treated with nootkatone, or that they would attempt to land and be poisoned by contacting nootkatone on the water surface. The rate of egg laying on the treated surface and the control surface, the presence of any adults found dead on the surface, and the overall mortality rate on a daily basis were recorded, and the average and standard error were calculated versus the untreated controls. […] An unexpected result was that filter papers treated with ethanol alone had 24% more eggs laid than the average of the untreated filter papers in the same cages. […] Photographs of representative filter papers are shown in FIG. 15, 1% nootkatone treatment (left), ethanol-only control (right).

Aedes aegypti pupae = assay: Prevention of adult emergence (eclosion) from pupae (Example No. 7); settings: for Dead adults, total number / Dead pupae, total number / live adults, total number / live pupae, total number: 0.015% NK/0.5% EtOH in water
Procedure: Eggs of Aedes aegypti were purchased from a commercial supplier. They were hatched in sterile MilliQ water and fed with finely ground Tetramin® fish food until they developed into pupae.
Clean, glass 600 mL beakers were washed and thoroughly rinsed prior to use as test containers. On each of four testing days, pupae were removed from dishes used to grow larvae. Replicates of 10 pupae each were randomly assigned to glass beakers in a volume of 100 mL of sterile MilliQ water, and a treatment of nootkatone (see “Treatments” below), or a control treatment of ethanol alone, was added. The beakers were then covered lightly with Kimwipes, secured by rubber bands to prevent escape of adults. […]
An aliquot of 0.5 mL of a 3% solution (w/v) of nootkatone in 100% ethanol was added to treatment beakers to obtain a final concentration of 0.015% nootkatone/0.5% ethanol. Control beakers received 0.5 mL of 100% ethanol, to obtain a final concentration of 0.5% ethanol.

[2] = 0.015% nootkatone/0.5% ethanol, after 48 hours, of 150 pupae

## C=C(C)[C@@H]1CCC2=CC(=O)C[C@@H](C)[C@]2(C)C1 [Nootkatone, nootkatone]
Aedes aegypti eggs
  reduction in egg hatching versus the controls: 37%
  state of hatched larvae in treated dishes: all larvae in the treated dishes were dead
Aedes aegypti eggs; cohorts of ~100 eggs, four dishes, controls 13.5, FIG. 11
  average number of hatched larvae per Petri dish: 8.5 larvae
3rd/4th instar larvae; 0.01% nootkatone (v/v), 72 hours after application, FIG. 6
  mortality rate: about 10%
3rd/4th instar larvae; 0.01% nootkatone (v/v), larvae added after application, through 48 hours, FIG. 6
  mortality: 100%
3rd/4th instar larvae; 0.03% nootkatone (v/v), after 24 hours, first cohort
  larvae dead: 100%
3rd/4th instar larvae; 0.03% nootkatone (v/v), larvae added 0, 24, 48, and 78 hours after application, FIG. 5
  mortality: 100%
3rd/4th instar larvae; 0.03% nootkatone (v/v), larvae added after application, through 48 hours, FIG. 6
  mortality: 100%
3rd/4th instar larvae; 0.03% nootkatone (v/v), through 72 hours after application, FIG. 6
  mortality: 100%
3rd/4th instar larvae; 0.03% nootkatone (v/v), through one week of treatment, FIG. 7
  mortality rates: greater than 90%
3rd/4th instar larvae; 0.03% nootkatone, containers inoculated 48 hours prior to larvae, up to a week after nootkatone treatment, FIG. 7
  larvae killed within 24 hours: 100%
3rd/4th instar larvae; 0.03% nootkatone, one week after addition of nootkatone, FIG. 7
  larval mortality: 94%
[1]; 1 day post-exposure
  Adult mosquito mortality: Affected, mean: 6.7 per cage
  Adult mosquito mortality: Dead, mean: 6.7 per cage
  Adult mosquito mortality: Knockdown, mean: 0.0 per cage
[1]; 2 days post-exposure
  Adult mosquito mortality: Affected, mean: 10.7 per cage
  Adult mosquito mortality: Dead, mean: 10.7 per cage
  Adult mosquito mortality: Knockdown, mean: 0.0 per cage
[1]; 1% nootkatone in ethanol, versus 700-1100 eggs per cage on untreated papers
  total eggs laid on treated papers in 3 cages: 2 eggs
[1]
  Percent fecundity reduction, average: 99%
[1]; listed as NK
  Percent fecundity reduction, average: 99.9%
Aedes aegypti pupae; 2 DAT (48 hours), of 150 pupae
  Dead adults, total number: 47
  Dead pupae, total number: 103
  live adults, total number: 0
  live pupae, total number: 0
Aedes aegypti pupae; 24 hr, of 150 pupae
  Dead adults, total number: 31
  Dead pupae, total number: 31
  live adults, total number: 0
  live pupae, total number: 88
Aedes aegypti pupae; 0.015% nootkatone/0.5% ethanol (v/v) in water, after 48 hours
  survivors: no survivors
Aedes aegypti pupae; [2]
  share of pupae that died as pupae: 68.7%
  share of pupae that metamorphosed but died during eclosing: 31.3%
